Assay [1] concerns the target T1, Pfs16 (Plasmodium falciparum, UniProt Q6ZMA7).
T1 construct: native full-length protein in stage V gametocytes or their Triton X-100 lysate; 157 residues, 16 kDa, one TM domain
T1 sequence (Q6ZMA7 26-157): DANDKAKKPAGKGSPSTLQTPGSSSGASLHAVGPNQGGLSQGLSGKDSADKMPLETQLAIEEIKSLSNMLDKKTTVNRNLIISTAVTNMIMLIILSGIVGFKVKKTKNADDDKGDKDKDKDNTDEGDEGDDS
Briefly: CETSA melt curve with immunoblot. The note with it: 100 µM compound. Format: biochemical.

The target in assay [2] is T1, Pfs16. In words: photoaffinity labelling of live gametocytes, pulldown, TMT LC-MS/MS and immunoblot. Format: cell-based. The note with it: covalent (aryl azide photo-crosslink, 254 nm); 2.5 to 10 µM probe, 37 °C.

The results in this text go back to article PMC9934914, “A novel class of sulphonamides potently block malaria transmission by targeting a Plasmodium vacuole membrane protein” (Disease Models & Mechanisms, 2023).

Turning to `O=S(=O)(NCC1(O)CCOc2ccccc21)c1ccc(Br)s1` (stereo not drawn) [DDD01035881], on Pfs16 [1] (pH 7.5, activated stage V gametocyte lysate, also isothermal dose response at 78.4 °C, 1 nM to 100 µM), the Tm shift result is on record as “DDD01035881 treatment clearly resulted in a positive shift in the Pfs16 melting curve”.

`O=S(=O)(NCC1(O)CCOc2ccccc21)c1cccc(Br)c1` (single isomer, unassigned; (-)) [(−)-DDD01028076]: the Tm shift entry on Pfs16 [1] (pH 7.5, stage V gametocyte lysate) is given as “A shift in the Pfs16 melting curve was also evident in the presence of (−)-DDD01028076”.

For `C#Cc1ccc2c(c1)C(O)(CNS(=O)(=O)c1cccc(N=[N+]=[N-])c1)CCO2` (stereo not drawn) [compound 2, probe 2], the “photoaffinity labelling of live gametocytes, pulldown, TMT LC-MS/MS and immunobl” value on Pfs16 [2] is “a dose-dependent pulldown of Pfs16 was clearly observed”.
